Test results as given in PMC12207360, “Hyperpolarization Modulation of the T‐Type hCav3.2 Channel by Human Synenkephalin [1–53], a Shrew Neurotoxin Analogue without Paralytic Effects” (Angewandte Chemie (International Ed. in English), 2025).
Where no end group is shown, it is not given here.

What was measured:
[1] = tested on: glutamyl endopeptidase (Glu-C); assay: Glutamyl endopeptidase (Glu-C) digestion; conditions: intact peptide, without disulfide reduction
Protocol: To determine the connectivity of disulfide bonds in synthetic 2, enzymatic digestion and subsequent fragment peptide analysis were performed. […] However, due to high proteolytic stability, analysis of these degraded products provided little information on the disulfide bond connectivity in 2. To perform stepwise S‐alkylation with limiting reduction of disulfide bonds,^[ [52], [53] ^] 2 was denatured with 6 M aq. guanidine hydrochloride (GdmCl)/0.1 M aq. citrate, followed by tris(2‐carboxyethyl)phosphine (TCEP) reduction and Michael addition to N‐ethylmaleimide (NEM). As a result, we obtained six kinds of S‐alkylated products (2SS‐a/b/c and 1SS‐a/b/c) with one or two disulfide bonds cleaved, respectively, along with unreacted 2 (3SS) and a fully S‐alkylated product (0SS) (Scheme 1a and Figure S4a). HPLC‐purified 1SS‐a (3) and 1SS‐b (4), which have different patterns of four Cys(S‐Nem) residues, were then reduced with DTT and alkylated with iodoacetamide.

[2] = tested on: human T-type voltage-gated calcium channel (hCav3.2); assay: Whole-cell patch-clamp of voltage-gated Ca2+ currents in HEK293T cells expressing hCav3.2; assay type: cell-based; conditions: 0.74 µM, n = 5
Protocol: Normalized conductance (G/G max) was generated for both data sets, fit to a Boltzmann equation, and is shown as data ± S.E.M. (n = 5). Statistical analyses were performed using Dunnett's multiple comparison tests. ^* p < 0.05 versus control. […]
Electrophysiological assays were done on human Cav3.2 channel, which was expressed on human embryonic kidney 293T (HEK293T) cells using Lipophectamine® 3000 transfection reagent. A pcDNA3 plasmid construct containing the complete sequence coding the human α1H-subunit of the Cav3.2 channel flanked by a green fluorescent protein was kindly provided by Prof. Edward Perez–Reyes (University of Virginia, Charlottesville, Virginia, USA).S1 Vo l t a g e-gated Ca2+ currents were recorded by the whole-cell patch-clamp technique, as previously described.28,S2 This recording was performed in the whole-cell conﬁguration using an Axopatch 200B Ampliﬁer (Axon CNS, Molecular Devices) at a holding potential of –90 mV. Cells were depolarized from the –90 mV holding potential to +80 mV with +10 mV voltage steps of 200 ms. The current amplitude was measured at the peak. The current density was determined with the cell capacitance to establish the density-voltage curves.
The currents were ﬁltered at 2 kHz and sampled at 5 kHz using an A/D converter, the Digidata 1440A (Axon CNS, Molecular Devices). The leak was subtracted automatically by a P/4 protocol (pclamp10, Axon CNS, Molecular Devices). For the recording Ca2+ currents, the bath solution contained 125 mM N-methyl-D-glucamine, 5 mM 4-aminopyridine, 20 mM tetraethylammonium chloride, 2 mM CaCl2, 2 mM MgCl2, and 10 mM D-glucose and was buffered to pH 7.4 with 10 mM HEPES. The patch pipettes were ﬁlled with solution containing 130 mM CsCl, 10 mM EGTA, 3 mM Mg–AT P, a n d 0 . 4 m M Li–GTP with the pH adjusted to 7.2 by 25 mM HEPES. Statistical analyses were performed using Dunnett’s multiple comparison tests. *, p < 0.05 versus control.
(§1) Circular dichroism spectrometry and stereostructure prediction of hSYN. […]
(§2) In brief, synthetic hSYN [1–53] (2) was dissolved in 50 mM KHPO4, pH 7.0 (ﬁnal concentration: 20 μM) in a 1 mm pathlength cell. The spectrum consisted of ﬁve scans acquired with a scan rate of 20 nm/min and a digital integration time of 2 sec. […]
(§3) Schrödinger, LLC) was used for calculation of surface charge and final image processing which suitable for scientific

[3] = tested on: mealworms (larva of Zophobas atratus); assay: Mealworm paralysis bioassay, i.p. injection; assay type: in vivo; conditions: for Paralyzed/total numbers: 100 µL per 1 g bodyweight, immediate lower-body paralysis
Protocol: Paralytic activity against mealworms was examined by using synthetic 2 dissolved in saline with mealworms (larva of Zophobas atratus, body weight: 0.7–1.0 g), as described previously.28 Synthetic hSYN was injected into the abdomen of mealworms and observed immediate lower-body paralysis (injection volume: 100 μL per 1.0 g mealworm bodyweight).
Phosphate buffered saline (PBS) was used as a control. […]
HEPES. The patch pipettes were ﬁlled with solution containing 130 mM CsCl, 10 mM EGTA, 3 mM Mg–AT P, a n d 0 . 4 m M […]
as §1, §2, §3

Substance: human synenkephalin [1–53] (ECSQDCATCSYRLVRPADINFLACVMECEGKLPSLKIWETCKELLQLSKPELP; disulfide (positions not given here); also: Type II disulfides, places not given here; UniProt P01210 25-77, looked up, fragment) [compound 2, human synenkephalin N-terminal part [1–53], three disulfide bonds Cys(I)–Cys(V), Cys(II)–Cys(IV), Cys(III)–Cys(VI)]
- proteolytic stability toward Glu-C [1]: partially digested
- lowest current density peak ([2]; at −30 mV (control ca. −59 pA/pF at −10 mV)): ca. −42 pA/pF
- voltage of lowest current density peak ([2]; control peak at −10 mV): −30 mV
- current density at 0 to +20 mV ([2]; suggesting a block at higher membrane depolarization): significantly reduced
- hyperpolarization shift of hCav3.2 activation ([2]; whole-cell patch clamp, HEK293T cells, holding potential –90 mV, pH 7.4, Boltzmann fit, ± S.E.M., p < 0.05 versus control): −15 mV
- Paralyzed/total numbers ([3]; 5.0 µg/g bodyweight): 0/4
- Paralyzed/total numbers ([3]; 15 µg/g bodyweight): 0/3
- Paralyzed/total numbers ([3]; 50 µg/g bodyweight): 0/4
- paralytic effect on mealworms ([3]; even at 50 µg g−1 body weight): no paralytic effects on mealworms
